Columns and labels:
[1] = test system: Helicobacter pylori; test: In vitro MIC against halitosis bacteria; type: cell-based
[2] = test system: rat mesentery culture; test: In vitro mesentery culture model, wound closure; type: cell-based; conditions: for concentrations of growth factors EGF and FGF: 10 mcg/mL to 1,000 mcg/mL in medium with 2% fetal calf serum; for wound closure rate: 10 mcg/mL to 1,000 mcg/mL, 24-hour, 48-hour and 72-hour, compared to the placebo
Description: This tissue culture model is useful for gaining insights into growth factor interactions and wound healing.

[3] = Freeze-injured skin graft model; type: in vivo; conditions: 10 to 1000 mcg/mL; compared to placebo
[4] = test system: Treponema denticola; test: In vitro MIC against halitosis bacteria; type: cell-based
[5] = Diabetic mouse wound healing model; type: in vivo; conditions: 10 mcg/mL to 1,000 mcg/mL; compared to placebo treated wound
Method: Further, wound healing potential of the above bismuth compounds is evaluated using a diabetic mouse wound healing model (Matuszewska et al., Pharmaceutical Research 11(1):65-71 (1994), incorporated herein by reference).

[6] = test system: Campylobacter rectus; test: In vitro MIC against halitosis bacteria; type: cell-based
[7] = test system: H. Pylori; conditions: as a single agent; cited from earlier work
[8] = four hour exposure; 0.5% in artificial saliva; mild agitation
Description: Artificial saliva was used (Table 9). Table 9 THECOMPOSITION OF ARTIFICIAL SALIVA
Table 10 DENTURE MATERIALS

[9] = of the 13 adverse reaction forms, 1978 to 1986; cited from earlier work
[10] = test system: H. Pylori; conditions: against H. Pylori; cited from earlier work

Compound	MIC [1]	concentrations of growth factors EGF and FGF [2]	wound closure rate [2]	wound healing in cryoinjured grafts [3]	MIC [4]	wound healing [5]	MIC [6]	eradication rate for H. Pylori [7]	staining, discoloration, or changes in texture of natural tooth and other denture materials [8]	adverse reactions ascribed to CBS [9]	MIC range [10]	minimum inhibitory concentration (MIC) [10]
Bismuth Ascorbyl Sulfate	8 µg/mL	Significantly higher	significantly faster wound closure rate and complete closure	stimulates wound healing in cryoinjured grafts in a dose-related fashion	16 µg/mL	heal faster	256 µg/mL	–	–	–	–	–
Bismuth Sucrose Sulfate	16 µg/mL	–	–	–	32 µg/mL	–	> 256 µg/mL	–	–	–	–	–
Cc1ncc([N+](=O)[O-])n1CCO [metronidazole]	–	–	–	–	–	–	–	5%	–	–	–	–
colloidal bismuth subcitrate [CBS]	2 µg/mL	Significantly higher	significantly faster wound closure rate and complete closure	stimulates wound healing in cryoinjured grafts in a dose-related fashion	32 µg/mL	heal faster	256 µg/mL	–	did not cause any staining, discoloration, or changes in texture	Five	4 to 32 µg/mL	8 µg/mL

— patent publication EP1683515A2, “Bismuth-containing compounds in topical dosage forms” (Josman Laboratories, Inc., priority 1995, dated 1997)
